Laboratory results taken from paper PMC4186413, “Identification of metabolic pathways and enzyme systems involved in the in vitro human hepatic metabolism of dronedarone, a potent new oral antiarrhythmic drug” (Pharmacology Research & Perspectives, 2014).
Each block holds one compound with its values, some of them ahead of it.

What was measured:
CYP2D6 = molecular target: T1, CYP2D6 (Homo sapiens, UniProt P10635); settings: reversible inhibition, human liver microsomes, reported; cited from earlier work
T1 construct: purchased BD Gentest (Woburn, MA); host or cells: baculovirus-infected insect cells
T1 sequence (P10635 whole entry): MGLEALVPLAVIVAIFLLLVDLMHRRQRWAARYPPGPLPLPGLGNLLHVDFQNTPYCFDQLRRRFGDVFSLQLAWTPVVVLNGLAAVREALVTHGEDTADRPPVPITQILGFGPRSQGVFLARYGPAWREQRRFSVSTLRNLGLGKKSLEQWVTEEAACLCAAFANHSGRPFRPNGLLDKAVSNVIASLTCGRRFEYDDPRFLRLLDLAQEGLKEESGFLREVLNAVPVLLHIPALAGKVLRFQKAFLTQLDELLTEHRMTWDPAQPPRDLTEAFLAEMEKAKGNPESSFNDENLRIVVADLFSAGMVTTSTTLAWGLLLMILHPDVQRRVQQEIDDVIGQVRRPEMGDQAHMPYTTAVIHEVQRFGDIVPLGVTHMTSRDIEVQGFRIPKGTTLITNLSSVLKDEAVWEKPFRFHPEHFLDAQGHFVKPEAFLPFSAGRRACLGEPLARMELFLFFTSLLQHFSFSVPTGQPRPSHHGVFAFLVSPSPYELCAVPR

[1] = cited from earlier work
CYP3A4 = settings: reversible inhibition, human liver microsomes, reported; cited from earlier work
MAO-A = molecular target: T2, MAO-A (Homo sapiens, UniProt P21397); assay: Oxidation by recombinant human MAO-A; format: in vitro ADME; settings: 1 mg/mL, 5 μmol/L, 30 min, no cofactor
T2 construct: purchased BD Gentest (Woburn, MA); host or cells: baculovirus-infected insect cells
T2 sequence (P21397 whole entry): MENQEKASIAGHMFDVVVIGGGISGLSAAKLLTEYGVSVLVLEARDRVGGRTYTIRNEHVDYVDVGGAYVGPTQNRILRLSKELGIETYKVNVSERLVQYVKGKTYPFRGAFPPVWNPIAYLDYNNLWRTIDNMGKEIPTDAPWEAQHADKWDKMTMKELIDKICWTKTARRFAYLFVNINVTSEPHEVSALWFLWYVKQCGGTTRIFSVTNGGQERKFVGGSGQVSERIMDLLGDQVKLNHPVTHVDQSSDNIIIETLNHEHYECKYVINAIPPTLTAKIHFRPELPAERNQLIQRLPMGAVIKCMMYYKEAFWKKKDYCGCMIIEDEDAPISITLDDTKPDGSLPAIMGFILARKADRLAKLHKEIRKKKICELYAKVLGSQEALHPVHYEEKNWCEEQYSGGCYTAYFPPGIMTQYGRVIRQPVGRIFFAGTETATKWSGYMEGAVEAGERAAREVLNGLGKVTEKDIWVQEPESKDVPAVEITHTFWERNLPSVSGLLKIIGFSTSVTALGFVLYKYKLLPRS
From the text: (§1) Recombinant human CYPs (Supersomes™; BD Gentes, Woburn, MA: CYP1A1, CYP1A2, CYP2A6, CYP2B6, CYP2C8, CYP2C9, CYP2C18, CYP2C19, CYP2D6, CYP2E1, CYP3A4 and CYP3A5), FMOs (Supersomes™: FMO1, FMO3, FMO5), MAOs (Supersomes™: MAO-A and MAO-B), and UGTs (Supersomes™: UGT1A1, UGT1A3, UGT1A4, UGT1A6, UGT1A7, UGT1A8, UGT1A9, UGT1A10, UGT2B4, UGT2B7, UGT2B15, and UGT2B17) expressed in baculovirus-infected insect cells and control microsomes from insect cells infected with wild-type baculovirus were all obtained from BD Gentest (Woburn, MA). […]
(§2) In human liver microsomes and recombinant isoforms, the percentage of metabolism was determined on the basis of unchanged drug disappearance, using the following equation [drawing 1] where UDt = 30 min represents the unchanged drug peak area after a 30-min incubation period and UDt = 0, the unchanged drug peak area at t = 0. […]
(§3) Figure 5 Contribution of individual CYPs, FMOs and MAOs to the oxidation of dronedarone and its metabolites. […] Unchanged drugs were quantified by LC/MS-MS relative to the synthetic references as described in Materials and Methods. Data are expressed as the percentage of oxidation.

MAO-B = molecular target: T3, MAO-B (Homo sapiens, UniProt P27338); assay: Oxidation by recombinant human MAO-B; format: in vitro ADME; settings: 1 mg/mL, 5 μmol/L, 30 min, no cofactor
T3 construct: purchased BD Gentest (Woburn, MA); host or cells: baculovirus-infected insect cells
T3 sequence (P27338 whole entry): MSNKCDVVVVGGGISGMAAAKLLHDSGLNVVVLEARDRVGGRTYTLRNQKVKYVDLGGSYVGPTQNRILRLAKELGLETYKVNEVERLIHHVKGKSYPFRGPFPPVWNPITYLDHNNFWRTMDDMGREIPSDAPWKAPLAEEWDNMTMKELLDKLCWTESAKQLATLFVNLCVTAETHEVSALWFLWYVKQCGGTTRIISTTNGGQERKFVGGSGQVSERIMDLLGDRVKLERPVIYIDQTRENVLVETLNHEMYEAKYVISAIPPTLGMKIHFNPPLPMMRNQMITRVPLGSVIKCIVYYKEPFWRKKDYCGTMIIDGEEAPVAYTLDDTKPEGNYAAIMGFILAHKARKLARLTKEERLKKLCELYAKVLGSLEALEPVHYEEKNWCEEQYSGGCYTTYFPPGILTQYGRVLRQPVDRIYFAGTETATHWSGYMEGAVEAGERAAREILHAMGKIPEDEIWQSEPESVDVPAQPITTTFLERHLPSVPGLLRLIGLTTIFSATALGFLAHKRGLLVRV
From the text: as §1, §2, §3

UGT1A1 = molecular target: T4, UGT1A1 (Homo sapiens, UniProt P22309); assay: Glucuronidation by recombinant human UGT1A1; format: in vitro ADME; settings: 1 mg/mL, 5 μmol/L, 30 min, UDPGA
T4 construct: purchased BD Gentest (Woburn, MA); host or cells: baculovirus-infected insect cells
T4 sequence (P22309 26-533): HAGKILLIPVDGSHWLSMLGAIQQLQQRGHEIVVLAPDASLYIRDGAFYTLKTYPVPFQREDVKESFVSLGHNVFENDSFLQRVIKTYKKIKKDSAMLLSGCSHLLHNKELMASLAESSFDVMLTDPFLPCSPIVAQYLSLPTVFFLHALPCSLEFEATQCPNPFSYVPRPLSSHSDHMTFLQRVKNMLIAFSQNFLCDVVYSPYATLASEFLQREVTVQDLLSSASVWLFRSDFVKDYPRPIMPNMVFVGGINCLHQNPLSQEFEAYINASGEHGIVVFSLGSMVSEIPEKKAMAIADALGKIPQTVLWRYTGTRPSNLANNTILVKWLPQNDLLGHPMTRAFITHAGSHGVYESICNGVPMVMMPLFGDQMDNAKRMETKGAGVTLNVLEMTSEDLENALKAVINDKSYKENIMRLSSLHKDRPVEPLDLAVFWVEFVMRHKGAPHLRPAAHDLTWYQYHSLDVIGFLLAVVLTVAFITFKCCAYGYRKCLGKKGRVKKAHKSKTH
From the text: (§4) Recombinant human CYPs (Supersomes™; BD Gentes, Woburn, MA: CYP1A1, CYP1A2, CYP2A6, CYP2B6, CYP2C8, CYP2C9, CYP2C18, CYP2C19, CYP2D6, CYP2E1, CYP3A4 and CYP3A5), FMOs (Supersomes™: FMO1, FMO3, FMO5), MAOs (Supersomes™: MAO-A and MAO-B), and UGTs (Supersomes™: UGT1A1, UGT1A3, UGT1A4, UGT1A6, UGT1A7, UGT1A8, UGT1A9, UGT1A10, UGT2B4, UGT2B7, UGT2B15, and UGT2B17) expressed in baculovirus-infected insect cells and control microsomes from insect cells infected with wild-type baculovirus were all obtained from BD Gentest (Woburn, MA).
(§5) For glucuronidation pathways, the assay mixture was composed of human liver microsomes (2 mg·mL^−1) or microsomes of baculovirus-infected cells expressing human UGTs (1 mg·mL^−1), uridine 5′-diphosphoglucuronic acid (UDPGA) (3 mmol/L), 100 mmol/L Tris HCl (pH 7.4) containing 5 mmol/L MgCl2 and 5 μmol/L of the investigated compound dissolved in DMSO in a final volume of 500 μL. The final concentration of DMSO in the reaction mixture was less than 1% (v/v). […]
(§6) Figure 7 Contribution of individual UGTs to the glucuronidation of propanoic acid-dronedarone and phenol-dronedarone. […] Unchanged drugs were quantified by LC/MS-MS relative to the synthetic references as described in Materials and Methods. Data are expressed as the percentage of glucuronidation.

UGT2B15 = molecular target: T5, UGT2B15 (Homo sapiens, UniProt P54855); assay: Glucuronidation by recombinant human UGT2B15; format: in vitro ADME; settings: 1 mg/mL, 5 μmol/L, 30 min, UDPGA
T5 construct: purchased BD Gentest (Woburn, MA); host or cells: baculovirus-infected insect cells
T5 sequence (P54855 24-530): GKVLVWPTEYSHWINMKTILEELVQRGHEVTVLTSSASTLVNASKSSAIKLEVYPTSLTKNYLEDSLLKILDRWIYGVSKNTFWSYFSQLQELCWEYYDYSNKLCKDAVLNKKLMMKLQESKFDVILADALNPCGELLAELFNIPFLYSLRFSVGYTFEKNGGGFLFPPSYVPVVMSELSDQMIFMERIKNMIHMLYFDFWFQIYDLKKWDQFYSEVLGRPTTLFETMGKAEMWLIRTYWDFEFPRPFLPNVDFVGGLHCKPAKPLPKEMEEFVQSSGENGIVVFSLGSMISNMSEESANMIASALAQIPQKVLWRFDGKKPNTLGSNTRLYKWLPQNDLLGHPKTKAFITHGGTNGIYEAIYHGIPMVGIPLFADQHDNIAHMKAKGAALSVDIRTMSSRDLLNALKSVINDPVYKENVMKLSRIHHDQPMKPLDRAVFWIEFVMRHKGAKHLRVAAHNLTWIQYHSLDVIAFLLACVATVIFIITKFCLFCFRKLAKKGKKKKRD
From the text: as §4, §5, §6

UGT2B7 = molecular target: T6, UGT2B7 (Homo sapiens, UniProt P16662); assay: Glucuronidation by recombinant human UGT2B7; format: in vitro ADME; settings: 1 mg/mL, 5 μmol/L, 30 min, UDPGA
T6 construct: purchased BD Gentest (Woburn, MA); host or cells: baculovirus-infected insect cells
T6 sequence (P16662 24-529): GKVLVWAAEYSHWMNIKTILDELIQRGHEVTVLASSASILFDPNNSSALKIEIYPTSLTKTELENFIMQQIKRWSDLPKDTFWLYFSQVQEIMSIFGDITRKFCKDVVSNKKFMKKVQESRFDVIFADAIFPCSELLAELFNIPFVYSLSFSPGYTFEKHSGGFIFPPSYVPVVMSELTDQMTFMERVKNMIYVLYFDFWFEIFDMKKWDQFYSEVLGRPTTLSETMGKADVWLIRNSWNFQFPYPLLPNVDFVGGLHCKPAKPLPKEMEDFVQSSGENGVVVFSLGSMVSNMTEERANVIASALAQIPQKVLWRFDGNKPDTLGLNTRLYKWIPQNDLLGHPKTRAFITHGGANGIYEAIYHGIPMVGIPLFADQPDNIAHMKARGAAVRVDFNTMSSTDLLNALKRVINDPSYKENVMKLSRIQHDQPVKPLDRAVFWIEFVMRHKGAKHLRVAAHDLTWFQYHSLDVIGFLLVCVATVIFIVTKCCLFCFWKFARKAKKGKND
From the text: as §4, §5, §6

UGT1A3 = molecular target: T7, UGT1A3 (Homo sapiens, UniProt P35503); assay: Glucuronidation by recombinant human UGT1A3; format: in vitro ADME; settings: 1 mg/mL, 5 μmol/L, 30 min, UDPGA
T7 construct: purchased BD Gentest (Woburn, MA); host or cells: baculovirus-infected insect cells
T7 sequence (P35503 29-534): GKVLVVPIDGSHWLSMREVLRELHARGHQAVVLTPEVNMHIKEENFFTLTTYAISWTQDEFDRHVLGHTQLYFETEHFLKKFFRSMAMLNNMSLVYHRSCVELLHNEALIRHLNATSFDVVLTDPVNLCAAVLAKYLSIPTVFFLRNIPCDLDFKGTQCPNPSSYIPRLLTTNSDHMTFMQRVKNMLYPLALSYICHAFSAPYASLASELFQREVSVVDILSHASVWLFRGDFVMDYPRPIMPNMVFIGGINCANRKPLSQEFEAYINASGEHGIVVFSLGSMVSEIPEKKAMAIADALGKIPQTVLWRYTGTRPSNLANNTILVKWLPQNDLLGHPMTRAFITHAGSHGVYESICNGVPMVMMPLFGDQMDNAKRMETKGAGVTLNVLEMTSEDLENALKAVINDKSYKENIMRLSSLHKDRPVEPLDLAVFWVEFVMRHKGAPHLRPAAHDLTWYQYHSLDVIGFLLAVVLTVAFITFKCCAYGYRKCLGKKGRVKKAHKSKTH
From the text: as §4, §5, §6

CYP2C19 = molecular target: T8, CYP2C19 (Homo sapiens, UniProt P33261); assay: Oxidation by recombinant human CYP2C19; format: in vitro ADME; settings: 100 pmol/mL, 5 μmol/L, 30 min, NADPH
T8 construct: purchased BD Gentest (Woburn, MA); host or cells: baculovirus-infected insect cells
T8 sequence (P33261 whole entry): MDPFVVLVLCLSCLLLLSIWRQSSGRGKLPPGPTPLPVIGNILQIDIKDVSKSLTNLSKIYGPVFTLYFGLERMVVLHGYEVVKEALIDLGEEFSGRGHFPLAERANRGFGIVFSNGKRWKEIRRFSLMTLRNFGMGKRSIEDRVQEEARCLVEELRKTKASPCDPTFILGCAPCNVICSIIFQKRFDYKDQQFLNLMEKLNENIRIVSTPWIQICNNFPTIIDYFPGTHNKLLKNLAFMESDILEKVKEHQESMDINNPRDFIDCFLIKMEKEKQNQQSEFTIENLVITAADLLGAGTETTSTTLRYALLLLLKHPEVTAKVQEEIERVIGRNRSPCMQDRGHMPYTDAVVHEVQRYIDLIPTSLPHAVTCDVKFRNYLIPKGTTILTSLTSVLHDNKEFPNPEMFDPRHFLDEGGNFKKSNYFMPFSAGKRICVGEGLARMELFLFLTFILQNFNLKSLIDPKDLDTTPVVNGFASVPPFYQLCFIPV
From the text: as §1, §2, §3

CYP2C8 = molecular target: T9, CYP2C8 (Homo sapiens, UniProt P10632); assay: Oxidation by recombinant human CYP2C8; format: in vitro ADME; settings: 100 pmol/mL, 5 μmol/L, 30 min, NADPH
T9 construct: purchased BD Gentest (Woburn, MA); host or cells: baculovirus-infected insect cells
T9 sequence (P10632 whole entry): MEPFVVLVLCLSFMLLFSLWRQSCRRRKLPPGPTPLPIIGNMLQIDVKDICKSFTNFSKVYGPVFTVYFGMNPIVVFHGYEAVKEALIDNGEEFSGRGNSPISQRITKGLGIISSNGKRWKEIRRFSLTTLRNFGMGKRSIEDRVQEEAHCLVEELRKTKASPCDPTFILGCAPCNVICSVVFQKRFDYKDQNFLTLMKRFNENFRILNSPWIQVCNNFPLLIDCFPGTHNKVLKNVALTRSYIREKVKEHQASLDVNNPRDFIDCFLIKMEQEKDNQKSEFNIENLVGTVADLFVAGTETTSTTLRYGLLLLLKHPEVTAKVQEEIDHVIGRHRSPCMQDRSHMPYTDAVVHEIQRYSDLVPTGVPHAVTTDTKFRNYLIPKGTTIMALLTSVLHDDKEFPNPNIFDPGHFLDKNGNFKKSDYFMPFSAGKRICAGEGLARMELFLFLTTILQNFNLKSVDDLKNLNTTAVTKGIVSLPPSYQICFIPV
From the text: as §1, §2, §3

Structure (SMILES): CCCCc1oc2ccc(NS(C)(=O)=O)cc2c1C(=O)c1ccc(OCCCN(CCCC)CCCC)cc1.Cl [Dronedarone, N-(2-Butyl-3-(4-(3-(dibutylamino)propoxy)benzoyl)-5-benzofuranyl)methanesulfonamide, hydrochloride]
- Ki (CYP2D6): 5 µM
- Increase of dronedarone exposure by ketoconazole ([1]; after single dose, clinical findings): 25 fold
- Increase of steady state exposure of metoprolol ([1]; dronedarone 400–800 mg twice a day, metoprolol 200 mg daily, CYP2D6 extensive metabolizers, ref Damy et al. [2004]): 1.6- to 2.3 folds
- Lowering of dronedarone exposure by rifampicin ([1]; rifampicin 600 mg once daily for 7 days): 5 fold

- Percentage of oxidation (unchanged drug disappearance) by MAO-A (MAO-A): 98%
- Metabolism by MAO-B (MAO-B): no metabolism occurred
Structure (SMILES): CCCCNCCCOc1ccc(C(=O)c2c(CCCC)oc3ccc(NS(C)(=O)=O)cc23)cc1 [N-debutyl-dronedarone]

- Percentage of oxidation (unchanged drug disappearance) by CYP2C19 (CYP2C19): 52%
Structure (SMILES): CCCCc1oc2ccc(NS(C)(=O)=O)cc2c1C(=O)c1ccc(O)cc1 [Phenol-dronedarone]
- Glucuronosyl transferase activity of UGT1A1 (UGT1A1): significant glucuronosyl transferase activity
- Glucuronosyl transferase activity of UGT2B15 (UGT2B15): significant glucuronosyl transferase activity
- Glucuronosyl transferase activity of UGT2B7 (UGT2B7): significant glucuronosyl transferase activity
- Glucuronosyl transferase activity of UGT1A3 (UGT1A3): significant glucuronosyl transferase activity

- Percentage of oxidation (unchanged drug disappearance) by CYP2C8 (CYP2C8): 28%
Structure (SMILES): CCCCc1oc2ccc(NS(C)(=O)=O)cc2c1C(=O)c1ccc(OCCC(=O)O)cc1 [Propanoic acid-dronedarone]
- Glucuronosyl transferase activity of UGT2B7 (UGT2B7): significant glucuronosyl transferase activity
